Assay results from patent US20130296434A1, “FORMULATIONS AND METHODS FOR TREATING AMYLOIDOSIS” (Kiacta Sarl, priority 2005, published 2013).

Key:
[1] = Pharmacokinetics of PDS after single and multiple oral administration in AA amyloidosis patients; assay type: in vivo; conditions: human, plasma; for AUC(0-t) / Cmax / half-life: po; for half-life: multiple dose oral administration
From the text: (§1) In the following examples, terms are as defined below. The pharmacokinetic parameters were derived by non-compartmental analysis using WinNonlin® (Pharsight Corp., Mountain View, Calif., USA). • Cmax—the maximum observed plasma concentration. • Tmax—the time of occurrence of Cmax. • AUC0-t—the area under the plasma concentration versus time curve from time zero to the last sampling time at which concentrations were at or above the limit of quantification, calculated by the linear trapezoidal rule. • AUC∞—the area under the plasma concentrations versus time curve from time zero to infinity, calculated from AUC0-t+(Clast/λz), where Clast is the last observed quantifiable concentration and λz is the apparent terminal rate constant. • t1/2 the apparent terminal half-life, calculated from ln 2/λz
The safety, efficacy and pharmacokinetics of PDS after single and multiple oral administration in subjects with AA amyloidosis is determined. This is a multicenter, multinational, randomized, double-blind, placebo-controlled, and parallel-design study to assess the pharmacokinetic profile of single and repeated doses of PDS. Dosing depends on the severity or renal impairment in a subject: subjects having creatinine clearance (ClCr)>80 mL/min receive 1200 mg BID; for ClCr between 30 and 80 mL/min, the subject receives 800 mg BID; and for ClCr between 20 and 30 mL/min, the subject receives 400 mg BID. If ClCr decreases to the next lower range level, the dose regimen is adjusted accordingly. PDS is administered as a single oral dose for a subset of AA amyloidosis patients on Month 0 and 24 visits. Following the single administration on Month 0, PDS is administered twice daily for 24 months. Blood samples are collected through 24 hours after the doses on Month 0 and 24, and through 8 hours after the doses on Month 4, 8, 12 visits. Plasma concentrations of PDS are determined using validated HPLC methods. Following multiple dose oral administration of PDS, the range of accumulation across subjects is 1.75 to 3.44. Based on the accumulation factor, the mean T1/2 calculated is 15 hours with a range of 10 to 24 hours.

[2] = Pharmacokinetics of single rising oral doses of PDS and food effect in healthy male subjects; assay type: in vivo, human; conditions: for AUC(0-inf) / AUC(0-t) / Cmax / Tmax: male, po; for AUC(0-inf) / AUC(0-t) / Cmax: mean; for Tmax: median
From the text: as §1
The safety, tolerability and pharmacokinetics of PDS following single oral administration in healthy male adult volunteers is determined. The effect of food on the pharmacokinetics of PDS is also determined. The first part of the study is a randomized, double-blind, placebo-controlled study to assess the pharmacokinetic profile of 6 single rising oral doses of PDS in healthy male subjects. The second part of this study is an open-label, two-way crossover study to investigate the effect of food on the pharmacokinetic profile of a single oral dose of PDS under fasted and fed conditions. Blood samples are collected during 36 hours following dosing. Plasma concentrations of PDS are determined using validated HPLC methods. […] The extent of systemic exposure (AUC and Cmax) to PDS increases with increasing dose. […] PDS should therefore not be given concomitantly with a high fat meal.

[3] = human, plasma, 100 mg, single oral 100 mg, healthy male subjects, n = 6
[4] = human, plasma, 200 mg, single oral 200 mg, healthy male subjects, n = 5
[5] = human, plasma, 400 mg, single oral 400 mg, healthy male subjects, n = 5
[6] = human, plasma, 800 mg, single oral 800 mg, healthy male subjects, n = 10
[7] = human, plasma, 1600 mg, single oral 1600 mg (rising dose part), healthy male subjects, n = 5
[8] = human, plasma, 1600 mg, single oral 1600 mg, Fasted, healthy male subjects, n = 8
[9] = human, plasma, 1600 mg, single oral 1600 mg, Fed (high-fat meal), healthy male subjects, n = 8
[10] = human, plasma, 2400 mg, single oral 2400 mg, healthy male subjects, n = 5

Compound: O=S(=O)([O-])CCCS(=O)(=O)[O-].[Na+].[Na+] [PDS, 1,3-propanedisulfonic acid, disodium salt]
- Tmax ([1]; Dose 400 (mg BID), Month 0 single oral dose, n = 2, mean): 3 h
- Tmax ([1]; Dose 400 (mg BID), Month 24 repeated oral doses, n = 3, mean): 1.83 h
- Tmax ([1]; Dose 800 (mg BID), Month 0 single oral dose, n = 5, mean): 2.95 h
- Tmax ([1]; Dose 800 (mg BID), Month 24 repeated oral doses, n = 4, mean): 1.85 h
- Tmax ([1]; Dose 1200 (mg BID), Month 0 single oral dose, n = 4, mean): 0.69 h
- Tmax ([1]; Dose 1200 (mg BID), Month 24 repeated oral doses, n = 1): 0.68 h
- AUC(0-t) ([1]; 400 mg BID, Month 24 repeated oral doses, n = 3, mean, read-out: AUC(0-12)): 17600 ng·h/mL
- AUC(0-t) ([1]; 400 mg BID, Month 24 repeated oral doses, n = 3, mean, read-out: AUC(0-tlast)): 25700 ng·h/mL
- AUC(0-t) ([1]; 400 mg, Dose 400 (mg BID), Month 0 single oral dose, n = 2, mean, read-out: AUC(0-12)): 7410 ng·h/mL
- AUC(0-t) ([1]; 400 mg, Dose 400 (mg BID), Month 0 single oral dose, n = 2, mean, read-out: AUC(0-tlast)): 11700 ng·h/mL
- Cmax ([1]; 400 mg, Dose 400 (mg BID), Month 24 repeated oral doses, n = 3, mean): 2160 ng/mL
- Cmax ([1]; 400 mg, Dose 400 (mg BID, ClCr 20-30 mL/min), Month 0 single oral dose, n = 2, mean): 841 ng/mL
- Cmax ([1]; 800 mg BID, Month 24 repeated oral doses, n = 4, mean): 1900 ng/mL
- AUC(0-t) ([1]; 800 mg BID, Month 24 repeated oral doses, n = 4, mean, read-out: AUC(0-12)): 13700 ng·h/mL
- AUC(0-t) ([1]; 800 mg BID, Month 24 repeated oral doses, n = 4, mean, read-out: AUC(0-tlast)): 21200 ng·h/mL
- AUC(0-t) ([1]; 800 mg, Dose 800 (mg BID), Month 0 single oral dose, n = 5, mean, read-out: AUC(0-12)): 5950 ng·h/mL
- AUC(0-t) ([1]; 800 mg, Dose 800 (mg BID), Month 0 single oral dose, n = 5, mean, read-out: AUC(0-tlast)): 9810 ng·h/mL
- Cmax ([1]; 800 mg, Dose 800 (mg BID, ClCr 30-80 mL/min), Month 0 single oral dose, n = 5, mean): 812 ng/mL
- Cmax ([1]; 1200 mg BID, Month 24 repeated oral doses, n = 1): 637 ng/mL
- AUC(0-t) ([1]; 1200 mg BID, Month 24 repeated oral doses, n = 1, read-out: AUC(0-12)): 4930 ng·h/mL
- AUC(0-t) ([1]; 1200 mg BID, Month 24 repeated oral doses, n = 1, read-out: AUC(0-tlast)): 9140 ng·h/mL
- AUC(0-t) ([1]; 1200 mg, Dose 1200 (mg BID), Month 0 single oral dose, n = 4, mean, read-out: AUC(0-12)): 4210 ng·h/mL
- AUC(0-t) ([1]; 1200 mg, Dose 1200 (mg BID), Month 0 single oral dose, n = 4, mean, read-out: AUC(0-tlast)): 5630 ng·h/mL
- Cmax ([1]; 1200 mg, Dose 1200 (mg BID, ClCr >80 mL/min), Month 0 single oral dose, n = 4, mean): 867 ng/mL
- half-life ([1]; read-out: mean T1/2 calculated based on the accumulation factor (converted)): 15 h
- half-life ([1]; read-out: range of T1/2 calculated based on the accumulation factor): 10 to 24 h
- half-life ([2]; human, plasma, single oral doses 100-2400 mg, healthy male subjects, range of means, read-out: mean half-life (T1/2)): 2 to 26 h
- AUC(0-inf) [2, 3]: 419 ng·h/mL
- AUC(0-t) [2, 3]: 240 ng·h/mL
- Cmax [2, 3]: 99.5 ng/mL
- Tmax [2, 3]: 1 h
- AUC(0-t) [2, 4]: 626 ng·h/mL
- Cmax [2, 4]: 164 ng/mL
- Tmax [2, 4]: 1 h
- AUC(0-inf) [2, 5]: 2900 ng·h/mL
- AUC(0-t) [2, 5]: 1880 ng·h/mL
- Cmax [2, 5]: 1080 ng/mL
- Tmax [2, 5]: 0.5 h
- AUC(0-inf) [2, 6]: 4550 ng·h/mL
- AUC(0-t) [2, 6]: 4840 ng·h/mL
- Cmax [2, 6]: 2870 ng/mL
- Tmax [2, 6]: 0.5 h
- AUC(0-t) [2, 7]: 8410 ng·h/mL
- Cmax [2, 7]: 4760 ng/mL
- Tmax [2, 7]: 0.5 h
- AUC(0-inf) [2, 8]: 12800 ng·h/mL
- AUC(0-t) [2, 8]: 11500 ng·h/mL
- Cmax [2, 8]: 6460 ng/mL
- Tmax [2, 8]: 0.5 h
- AUC(0-inf) [2, 9]: 6320 ng·h/mL
- AUC(0-t) [2, 9]: 4010 ng·h/mL
- Cmax [2, 9]: 563 ng/mL
- Tmax [2, 9]: 2.25 h
- AUC(0-inf) [2, 10]: 12900 ng·h/mL
- AUC(0-t) [2, 10]: 12000 ng·h/mL
- Cmax [2, 10]: 6050 ng/mL
- Tmax [2, 10]: 0.5 h
- effect of food on systemic availability ([2]; single oral 1600 mg, fed vs fasted conditions): decrease in both the rate and extent of systemic availability
- dose dependence of systemic exposure (AUC and Cmax) ([2]; single oral doses 100-2400 mg, healthy male subjects): reasonably proportional to the administered dose
